The results in this text go back to paper PMC12006963, “Application of Deuterium in an M1 Positive Allosteric Modulator Back-Up Program: The Discovery of VU6045422” (ACS Chemical Neuroscience, 2025).

Some results are limits rather than exact numbers.

Series [1] can be described thus: In vivo IV/PO pharmacokinetics, NHP. The following applies: NHP (cyno), dose iv/po mg/kg: 1 1/3, 5 1/5; for clearance / Vd / half-life: cynomolgus monkey, plasma, 1 mg/kg; for clearance: read-out: CLp; for Vd: read-out: Vss; for half-life: read-out: elimination t1/2 (converted).
A short description of series [2]: In vivo IV/PO pharmacokinetics, dog. The arrangement: species or system dog (beagle or mongrel). The settings on record: for clearance / Vd / half-life: beagle or mongrel, plasma, 1 mg/kg; for clearance: dose iv/po mg/kg: 1 1/3, 5 1/5, read-out: CLp; for Vd: dose iv/po mg/kg: 1 1/3, 5 1/5, read-out: Vss; for half-life: dose iv/po mg/kg: 1 1/3, 5 1/5, read-out: elimination t1/2 (converted); for F (%) po: dose iv/po mg/kg: 1 1/3, 5 1/5.

The next series deals with hM2-5. Briefly: Muscarinic selectivity, human M2-5 calcium mobilization. The series is classed as cell-based. The procedure: Procedures for Biological Experiments
Calcium mobilization assays:
All functional cell-based assays were performed in stable Chinese Hamster Ovary (CHO) cell lines constitutively expressing human M5 or human M1 receptors. For full muscarinic selectivity, CHO cells expressing human M3, human M2 plus Gqi5 or human M4 plus Gqi5 were used. Cells were plated at 15,000 cells per 20 µL per well in black 384-well, TC-treated, clear-bottomed plates (Greiner) in Ham’s F12 medium supplemented with 10% FBS and 20 mM HEPES. Cells were incubated overnight at 37 °C under 5% CO2. […] The compound plate, cell plate, and plates containing EC20 and EC80 acetylcholine concentrations were placed in a Hamamatsu FDSS 6000 or 7000 kinetic imaging plate reader equipped to measure Ex480/Em540 fluorescence. […] After 2 seconds of collecting baseline fluorescence, 20 µL of the compound solutions were added to the cell plate. […] The fluorescence signal was collected for a total of 300 seconds. […] Data were imported and analyzed in Dotmatics Informatics software. by normalizing all data in the individual kinetic traces to the initial fluorescence read. The magnitude of each agonist addition was then determined and normalized to the average maximum response. […] The IC50 determined using the EC80 of acetylcholine is the value reported. […]
(Calcium assays in cells follow changes in intracellular calcium, usually with a dye or a luminescent sensor.)

In a further series the test system is rM2-5. The experiment in a line: Muscarinic selectivity, rat M2-5. The series is classed as cell-based.
Another series has as its system recognition memory. Briefly: Novel object recognition (NOR) test. The class given is in vivo, rat. The settings on record: PO; for minimum effective dose (MED) in NOR: male Sprague-Dawley rats, 3 given 2 h, 5 given 1 h before exposure, memory assessed 24 h later; for effect on recognition memory in NOR: rats, 3 at 1, 3, 10 mg/kg, 5 at 0.3, 1, 3 mg/kg. How it is done: Figure 4 Novel object recognition (NOR) test in rats with M1 PAMs 3 and 5. […] Minimum effective dose (MED) is 10 mg/kg. […] Minimum effective dose (MED) is 1 mg/kg. N = 13–18/group of male Sprague-Dawley rats. Analysis of variance (ANOVA) *p < 0.05; **p < 0.01 Dunnett posthoc test.
Rats were habituated for 10 min for 2 consecutive days in an empty novel object recognition (NOR) arena consisting of dark-colored plexiglass box (40 × 64 × 33 cm3). On day 3 rats were administered vehicle, M1 PAM 3 (1-10 mg/kg, p.o.., 10 mL/kg, n = 13-18), or M 1 PAM 5 (0.3-3 mg/kg, p.o.., 10 mL/kg, n = 16-18) and returned to their home cage for 60 min (M 1 PAM 5) or 2 hr (M1 PAM 3. Rats were then placed in the NOR arena containing two identical objects for 10 min. Following the exposure period, rats were placed back into their home cages for 24 h. The rats were then returned to the arena in which one of the previously exposed (familiar) objects was replaced by a novel object and were video recorded for 5 min while they explored the two objects.
Time spent exploring each object was scored by an observer blinded to the experimental conditions and the recognition index was calculated as [(time spent exploring novel object) – (time spent exploring familiar object)]/total time exploring objects. […]
C18, 2.1 x 30 mm, 2.6 um. Gradient conditions: 7% to 95% CH3CN in H2O (0.1% TFA) over 1.6

Another series relates to Phorbol Ester. The experiment in a line: Eurofins radioligand binding. The arrangement: species or system Mouse.
The target of another series is Dopamine D2S (Homo sapiens, UniProt P14416). Briefly: Eurofins radioligand binding.
In series [3] the target is Transporter, Serotonin (SERT) (Homo sapiens, UniProt P31645). The experiment in a line: Eurofins radioligand binding.
The test system of a further series is Thyroid Hormone. The experiment in a line: Eurofins radioligand binding. On the set-up: species or system Rat.
In a further series the target is GABAB1A (Homo sapiens, UniProt Q9UBS5). Briefly: Eurofins radioligand binding.
A further series concerns the target hERG potassium channel (Homo sapiens, UniProt Q12809). The experiment in a line: Eurofins radioligand binding.
In series [4] the target is Transporter, Dopamine (DAT) (Homo sapiens, UniProt Q01959). The experiment in a line: Eurofins radioligand binding.
Chain of Transporter, Dopamine (DAT) (Q01959 whole entry): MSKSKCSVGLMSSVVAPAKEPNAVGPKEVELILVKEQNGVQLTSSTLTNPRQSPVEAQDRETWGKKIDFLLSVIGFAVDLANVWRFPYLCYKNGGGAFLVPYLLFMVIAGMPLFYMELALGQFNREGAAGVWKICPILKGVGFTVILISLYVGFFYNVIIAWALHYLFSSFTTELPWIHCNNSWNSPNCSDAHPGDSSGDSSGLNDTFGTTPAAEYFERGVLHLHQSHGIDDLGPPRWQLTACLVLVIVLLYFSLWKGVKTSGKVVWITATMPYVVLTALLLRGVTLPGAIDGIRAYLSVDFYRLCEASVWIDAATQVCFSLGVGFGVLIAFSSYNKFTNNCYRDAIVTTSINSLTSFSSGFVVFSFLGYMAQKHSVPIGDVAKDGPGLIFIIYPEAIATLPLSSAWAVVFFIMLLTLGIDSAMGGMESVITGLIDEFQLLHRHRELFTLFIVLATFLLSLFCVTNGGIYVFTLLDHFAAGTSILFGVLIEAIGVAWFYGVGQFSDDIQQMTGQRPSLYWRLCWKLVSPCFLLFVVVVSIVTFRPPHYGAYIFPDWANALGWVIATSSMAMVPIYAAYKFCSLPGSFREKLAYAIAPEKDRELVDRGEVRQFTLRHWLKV

Chain of Dopamine D2S (P14416 1-414 isoform P14416-2): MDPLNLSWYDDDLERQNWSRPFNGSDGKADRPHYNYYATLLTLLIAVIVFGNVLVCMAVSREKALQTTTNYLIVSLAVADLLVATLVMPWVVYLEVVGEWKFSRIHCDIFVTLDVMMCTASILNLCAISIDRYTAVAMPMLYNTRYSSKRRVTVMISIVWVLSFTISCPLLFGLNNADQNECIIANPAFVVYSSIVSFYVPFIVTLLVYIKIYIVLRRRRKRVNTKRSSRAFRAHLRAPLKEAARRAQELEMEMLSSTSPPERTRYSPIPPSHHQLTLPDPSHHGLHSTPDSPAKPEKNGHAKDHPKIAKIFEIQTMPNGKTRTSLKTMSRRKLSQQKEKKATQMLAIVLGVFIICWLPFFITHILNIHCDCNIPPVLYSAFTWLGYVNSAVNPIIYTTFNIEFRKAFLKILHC
Chain of Transporter, Serotonin (SERT) (P31645 whole entry): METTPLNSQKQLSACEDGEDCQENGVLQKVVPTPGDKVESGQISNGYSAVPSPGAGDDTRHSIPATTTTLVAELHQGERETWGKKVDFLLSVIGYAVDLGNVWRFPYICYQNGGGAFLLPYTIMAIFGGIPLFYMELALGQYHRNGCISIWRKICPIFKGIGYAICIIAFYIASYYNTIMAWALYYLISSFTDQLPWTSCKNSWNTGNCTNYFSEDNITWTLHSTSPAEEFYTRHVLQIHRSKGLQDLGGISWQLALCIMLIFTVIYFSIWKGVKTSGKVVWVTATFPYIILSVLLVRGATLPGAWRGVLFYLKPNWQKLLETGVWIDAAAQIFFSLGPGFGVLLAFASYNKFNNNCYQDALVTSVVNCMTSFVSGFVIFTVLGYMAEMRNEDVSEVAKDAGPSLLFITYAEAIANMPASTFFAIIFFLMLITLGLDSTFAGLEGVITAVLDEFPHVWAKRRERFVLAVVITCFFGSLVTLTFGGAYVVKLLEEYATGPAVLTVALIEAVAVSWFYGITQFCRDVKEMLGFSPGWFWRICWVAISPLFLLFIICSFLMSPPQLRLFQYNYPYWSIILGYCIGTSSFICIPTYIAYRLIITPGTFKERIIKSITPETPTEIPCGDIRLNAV
Chain of hERG potassium channel (Q12809 whole entry): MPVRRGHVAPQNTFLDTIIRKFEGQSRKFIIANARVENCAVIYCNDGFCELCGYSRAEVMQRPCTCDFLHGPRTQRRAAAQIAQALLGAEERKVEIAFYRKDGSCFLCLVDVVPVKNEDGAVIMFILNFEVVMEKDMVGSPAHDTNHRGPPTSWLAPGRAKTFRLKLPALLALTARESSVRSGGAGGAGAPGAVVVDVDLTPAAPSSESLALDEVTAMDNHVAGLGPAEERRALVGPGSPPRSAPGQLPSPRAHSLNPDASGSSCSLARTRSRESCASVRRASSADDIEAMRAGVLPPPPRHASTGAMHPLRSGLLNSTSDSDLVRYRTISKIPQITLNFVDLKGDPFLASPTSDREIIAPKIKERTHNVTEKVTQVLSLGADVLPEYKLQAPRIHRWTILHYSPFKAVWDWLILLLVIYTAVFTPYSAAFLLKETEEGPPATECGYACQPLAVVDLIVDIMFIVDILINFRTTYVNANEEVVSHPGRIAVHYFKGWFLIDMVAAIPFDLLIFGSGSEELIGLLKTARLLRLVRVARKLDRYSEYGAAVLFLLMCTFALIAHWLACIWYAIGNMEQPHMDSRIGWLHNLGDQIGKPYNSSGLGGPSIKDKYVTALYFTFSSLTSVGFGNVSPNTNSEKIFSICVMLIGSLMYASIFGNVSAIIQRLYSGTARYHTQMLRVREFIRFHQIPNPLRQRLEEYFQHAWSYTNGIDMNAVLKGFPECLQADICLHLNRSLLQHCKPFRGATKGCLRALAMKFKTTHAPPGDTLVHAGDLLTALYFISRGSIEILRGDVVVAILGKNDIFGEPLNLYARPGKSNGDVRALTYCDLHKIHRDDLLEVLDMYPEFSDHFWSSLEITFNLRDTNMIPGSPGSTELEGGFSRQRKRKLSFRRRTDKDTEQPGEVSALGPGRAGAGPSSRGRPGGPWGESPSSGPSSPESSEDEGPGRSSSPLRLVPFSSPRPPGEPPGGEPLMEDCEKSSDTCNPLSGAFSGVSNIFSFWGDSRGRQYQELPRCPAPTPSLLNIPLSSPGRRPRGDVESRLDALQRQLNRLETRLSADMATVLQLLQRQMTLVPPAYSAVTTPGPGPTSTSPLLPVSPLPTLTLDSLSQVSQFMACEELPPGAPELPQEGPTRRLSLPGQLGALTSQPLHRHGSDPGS
Chain of GABAB1A (Q9UBS5 15-961 limits assumed): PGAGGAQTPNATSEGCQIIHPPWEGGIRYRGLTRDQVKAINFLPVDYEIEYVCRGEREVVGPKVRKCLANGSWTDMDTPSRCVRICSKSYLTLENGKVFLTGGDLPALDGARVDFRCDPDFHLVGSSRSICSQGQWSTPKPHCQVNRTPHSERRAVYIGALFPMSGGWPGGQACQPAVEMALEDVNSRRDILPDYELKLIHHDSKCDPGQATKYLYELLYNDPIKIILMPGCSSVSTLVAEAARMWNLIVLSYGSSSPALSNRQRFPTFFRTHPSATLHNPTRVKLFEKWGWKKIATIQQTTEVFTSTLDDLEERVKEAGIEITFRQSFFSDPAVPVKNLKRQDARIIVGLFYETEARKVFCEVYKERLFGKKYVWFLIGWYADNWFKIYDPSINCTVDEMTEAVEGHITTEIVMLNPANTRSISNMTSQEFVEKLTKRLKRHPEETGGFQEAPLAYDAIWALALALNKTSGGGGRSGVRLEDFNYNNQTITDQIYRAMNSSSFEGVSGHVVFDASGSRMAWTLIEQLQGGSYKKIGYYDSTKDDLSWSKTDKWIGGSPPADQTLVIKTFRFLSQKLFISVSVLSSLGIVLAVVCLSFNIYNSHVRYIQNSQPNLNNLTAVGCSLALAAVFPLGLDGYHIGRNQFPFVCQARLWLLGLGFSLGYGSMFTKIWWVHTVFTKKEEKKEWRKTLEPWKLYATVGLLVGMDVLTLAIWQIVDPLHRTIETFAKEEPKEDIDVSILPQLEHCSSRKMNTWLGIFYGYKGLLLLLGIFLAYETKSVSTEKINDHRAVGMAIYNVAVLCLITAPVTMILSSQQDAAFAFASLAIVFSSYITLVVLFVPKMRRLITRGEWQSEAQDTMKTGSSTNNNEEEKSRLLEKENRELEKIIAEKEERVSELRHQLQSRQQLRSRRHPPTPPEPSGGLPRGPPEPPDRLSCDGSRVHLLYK
Chain of GABAB1A (O75899 42-941 partner): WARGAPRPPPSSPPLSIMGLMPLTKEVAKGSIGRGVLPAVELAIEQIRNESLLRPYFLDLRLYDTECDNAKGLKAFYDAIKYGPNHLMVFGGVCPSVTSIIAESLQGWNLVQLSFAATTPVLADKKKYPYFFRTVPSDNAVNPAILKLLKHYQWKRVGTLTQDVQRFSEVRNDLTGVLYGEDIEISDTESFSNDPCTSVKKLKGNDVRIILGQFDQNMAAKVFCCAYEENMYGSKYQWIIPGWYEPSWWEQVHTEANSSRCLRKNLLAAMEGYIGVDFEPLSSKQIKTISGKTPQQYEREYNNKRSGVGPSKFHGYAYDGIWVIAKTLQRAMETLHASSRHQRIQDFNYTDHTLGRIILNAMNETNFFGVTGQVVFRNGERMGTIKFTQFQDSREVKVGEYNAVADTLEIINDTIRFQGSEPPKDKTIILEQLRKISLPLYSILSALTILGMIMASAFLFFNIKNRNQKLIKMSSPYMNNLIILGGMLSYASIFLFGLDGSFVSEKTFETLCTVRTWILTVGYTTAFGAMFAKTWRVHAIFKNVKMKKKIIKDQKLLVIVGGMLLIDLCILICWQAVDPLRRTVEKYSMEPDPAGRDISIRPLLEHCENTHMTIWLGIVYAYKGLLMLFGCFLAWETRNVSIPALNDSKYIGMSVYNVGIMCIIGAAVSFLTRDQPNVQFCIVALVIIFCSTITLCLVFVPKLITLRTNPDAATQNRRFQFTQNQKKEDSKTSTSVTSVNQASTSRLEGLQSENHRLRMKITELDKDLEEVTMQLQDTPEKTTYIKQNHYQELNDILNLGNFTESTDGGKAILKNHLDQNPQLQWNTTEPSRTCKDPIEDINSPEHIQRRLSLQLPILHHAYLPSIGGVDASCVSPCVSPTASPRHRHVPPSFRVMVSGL

For `Cn1cc2c(-c3cc(F)c(CN4Cc5ncccc5C4=O)c(F)c3)cccc2n1` [compound 1], in [1], the “F (%) po” value amounted to 59%, the clearance stood at 3.3 mL/min/kg, the Vd came out at 0.9 L/kg and the half-life is 4.3 h. For the same compound, in series [2], the clearance came to 4 mL/min/kg, the Vd turned out to be 2.1 L/kg, the half-life is 7.5 h and the “F (%) po” value came out at 100%.
Consider `[2H]C1([2H])c2ncccc2C(=O)N1Cc1c(F)cc(-c2cccc3nn(C)cc23)cc1F` [compound 3], for which the EC50 in the series with hM2-5 and in the series with rM2-5 was more than 30 µM each time. In addition, the “minimum effective dose (MED) in NOR” value with recognition memory was found to be 10 mg/kg. In addition, in the series with recognition memory, the “effect on recognition memory in NOR” value was “dose-dependently enhanced the recognition memory”.
Regarding `[2H]C1([2H])c2ncccc2C(=O)N1Cc1c(F)cc(-c2cccc3nn(C([2H])([2H])[2H])cc23)cc1F` [compound 5], the “% Inhibition at 10 µM” value worked out at 5% with Phorbol Ester and 0% in the series with Thyroid Hormone. Further, the inhibition at 10 µM at Dopamine D2S was 2%; in series [3] it was -4%; at GABAB1A it was -5%; at hERG potassium channel, 9%; in series [4] it was 32%. For the same compound, the EC50 in the series on hM2-5 and in the series on rM2-5 was more than 30 µM throughout. Further, the “F (%) po” value in [1] was found to be 64%; in series [2], 85%. Moreover, the clearance was found to be 4 mL/min/kg in series [1] and 2.6 mL/min/kg in series [2]. Moreover, the Vd was 1.1 L/kg in series [1] and 2 L/kg in [2]. The half-life in series [1] is 4.6 h; in series [2], 10 h. In the series with recognition memory, the “minimum effective dose (MED) in NOR” value amounted to 1 mg/kg. Besides, in the series on recognition memory, the “effect on recognition memory in NOR” value is listed as “dose-dependently enhanced recognition memory”.

As usually defined, the EC50 is the concentration that produces a half-maximal response. The term % Inhibition denotes the relative decrease from the control value, in per cent. As a reminder, the inhibition is the drop in the measured response relative to a control, in per cent.
